Assay results: US20250073184A1, “CANNABIGEROQUINONE COMPOUNDS, COMPOSITIONS INCLUDING SUCH COMPOUNDS, AND USES OF SUCH COMPOUNDS AND COMPOSITIONS” (Juva Life, Inc., priority 2021, published 2025)

Legend:
[1] = tested on: SK-MEL-28 melanoma cell line; assay: SK-MEL-28 cell line toxicity (Cell titer Glo viability); assay type: cell-based; settings: SK-MEL-28, 72 h
Procedure: (§1) Culture medium were purchased from ATCC, USA.
• General cell culture reagents and plastic. • 384-Well Flat white Poly-styrene TC-Treated Microplates (Corning). • 384 well poly-propylene plates (acoustic grade, Labcyte) for compound dilution. • Cell titer Glo luminescent Cell Viability reagent (Cat #G7571, Promega).
(§2) 90 nL DMSO is added to control wells. […] Luminescence was then recorded using Synergy Neo2Multi-mode Reader.

[2] = tested on: PC3 prostate adenocarcenoma cell line; assay: PC3 cell line toxicity (Cell titer Glo viability); assay type: cell-based; settings: PC3, 72 h
Procedure: as §2, §1

[3] = tested on: HL-60 acute promyelocytic leukemia cell line; assay: HL-60 cell line toxicity (Cell titer Glo viability); settings: HL-60, 72 h
Procedure: The half maximal inhibition concentration (IC50) for each compound was determined by harvesting cells during the logarithmic growth period and then counting cell number using hemocytometer. […] Then, using a Biomek FX, test articles were serially diluted (10 mM top, 3× dilution intervals) along with a reference inhibitor (1 mM top, 3× dilution intervals) in acoustic grade Labcyte plate. Then, using an acoustic dispenser (Labcyte550), compounds were added as serially diluted to plate with cells: 90 nL of serially diluted compounds per well. 90 nL DMSO is added to control wells. Test plates were incubated for 72 h in the humidified incubator at 37° C. with 5% CO2. 25 μL of reconstituted Cell titer Glo reagent was added to each well. Each test plate was then incubated for 20 min at room temperature. Luminescence was then recorded using Synergy Neo2Multi-mode Reader.
In order to calculate intersect IC50, a dose-response curve was fitted using nonlinear regression model with a sigmoidal dose response.
The formula for calculating surviving rate is shown below, and the intersect IC50 was calculated according to the dose-response curve generated by the software:
The compounds of interest were assessed cell viability in the HL-60 acute promyelocytic leukemia cell line (ATCC® CCL-240). […] Culture medium were purchased from ATCC, USA.

[4] = biological target: T1, cannabinoid receptor 2 (CNR2) (Homo sapiens, UniProt P34972); assay: CB2 receptor agonist assay (cAMP Hunter eXpress, CNR2 CHO-K1 cells); assay type: cell-based; settings: agonist mode, Forskolin-stimulated cAMP, CNR2 CHO-K1 cells
T1 construct: host or cells: CHO-K1
Procedure: The assays were performed in cAMP Hunter eXpress cells engineered to overexpress naturally Gi/Go-coupled wildtype cannabinoid receptor 1 (CNR1) or cannabinoid receptor 2 (CNR2) in CHO-K1 cell type. In these cells, CB1 and/or […] agonists inhibit production of intracellular cAMP in response to stimulation with Forskolin. cAMP levels are determined using luminogenic detection reagents provided with the Hunter eXpress cAMP detection kit.
• Assay ready CNR1 CHO-K1 cells were obtained from Eurofins/Discover X, cat #95-0071E2 • Assay ready CNR2 CHO-K1 cells were obtained from Eurofins/Discover X, cat #95-0183E2 • Hunter eXpress cAMP detection kit was also from Discover X. The kit includes all cAMP detection reagents, Forskolin, complete cell plating medium and cell assay buffer.
The Assay-Ready CNR1 CHO-K1 or CNR2 CHO-K1 cells were thawed and re-suspended in pre-warmed Assay Complete plating medium and inoculated into 96 well plate at a density of 30,000 cells in 100 μL. The plates with cells were incubated for 24 h at 37° C. in 5% CO2. […] The cells were stimulated with the Forskolin/compound buffer for 30 min. After stimulation, 15 μL of cAMP antibody reagent and 60 μL of cAMP working detection solution were added to the cells and, the cells were incubated for 1 h at room temperature. After 1 h incubation, 60 μL of cAMP Solution A was added to the wells and the plate was incubated for 3 h at room temperature. The plate was read on Biotek Synergy Neo2 reader in luminescent mode. CB1 and CB2 agonists should reduce cAMP production in response to Forskilin. Relative luminescence units (RLUs) were plotted against compound concentration to determine apparent EC50 values of the agonist compounds.

T1 sequence (P34972 whole entry): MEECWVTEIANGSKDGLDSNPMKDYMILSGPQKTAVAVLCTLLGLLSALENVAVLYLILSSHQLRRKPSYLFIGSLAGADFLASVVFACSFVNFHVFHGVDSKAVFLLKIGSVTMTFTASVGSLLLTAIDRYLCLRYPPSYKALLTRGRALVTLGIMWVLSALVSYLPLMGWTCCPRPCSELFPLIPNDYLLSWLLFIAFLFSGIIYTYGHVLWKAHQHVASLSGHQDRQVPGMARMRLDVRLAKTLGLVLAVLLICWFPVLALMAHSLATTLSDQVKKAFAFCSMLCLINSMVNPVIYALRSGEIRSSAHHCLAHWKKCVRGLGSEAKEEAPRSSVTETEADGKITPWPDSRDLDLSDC

Cannabigerol Quinone [Formula VI]
EC50 [1]: > 30 µM
higher tolerance of SK-MEL-28 cells to the compound than staurosporine [1]: more than 250 fold
Cell Viability (%) ([1]; 0.00017 uM): 100.0%
Cell Viability (%) ([1]; 0.00051 uM): 97.2%
Cell Viability (%) ([1]; 0.0015 uM): 96.2%
Cell Viability (%) ([1]; 0.0046 uM): 101.0%
Cell Viability (%) ([1]; 0.014 uM): 98.5%
Cell Viability (%) ([1]; 0.041 uM): 99.9%
Cell Viability (%) ([1]; 0.12 uM): 100.0%
Cell Viability (%) ([1]; 0.37 uM): 101.0%
Cell Viability (%) ([1]; 1.1 uM): 99.9%
Cell Viability (%) ([1]; 3.3 uM): 104.0%
Cell Viability (%) ([1]; 10 uM): 99.0%
Cell Viability (%) ([1]; 30 uM): 83.2%
EC50 [2]: > 30 µM
higher tolerance of PC3 cells to the compound than staurosporine [2]: more than 10,000 fold
Cell Viability (%) ([2]; 0.00017 uM): 97.4%
Cell Viability (%) ([2]; 0.00051 uM): 100.9%
Cell Viability (%) ([2]; 0.0015 uM): 96.0%
Cell Viability (%) ([2]; 0.0046 uM): 96.9%
Cell Viability (%) ([2]; 0.014 uM): 96.5%
Cell Viability (%) ([2]; 0.041 uM): 95.9%
Cell Viability (%) ([2]; 0.12 uM): 96.0%
Cell Viability (%) ([2]; 0.37 uM): 97.7%
Cell Viability (%) ([2]; 1.1 uM): 94.0%
Cell Viability (%) ([2]; 3.3 uM): 94.6%
Cell Viability (%) ([2]; 10 uM): 91.2%
Cell Viability (%) ([2]; 30 uM): 84.5%
higher tolerance of HL-60 cells to the compound than staurosporine [3]: more than 1,500 fold
Cell Viability (%) ([3]; 0.00017 uM): 102.3%
Cell Viability (%) ([3]; 0.00051 uM): 113.4%
Cell Viability (%) ([3]; 0.0015 uM): 91.6%
Cell Viability (%) ([3]; 0.0046 uM): 94.0%
Cell Viability (%) ([3]; 0.014 uM): 94.1%
Cell Viability (%) ([3]; 0.041 uM): 83.6%
Cell Viability (%) ([3]; 0.12 uM): 85.1%
Cell Viability (%) ([3]; 0.37 uM): 91.3%
Cell Viability (%) ([3]; 1.1 uM): 91.3%
Cell Viability (%) ([3]; 3.3 uM): 97.8%
Cell Viability (%) ([3]; 10 uM): 81.9%
Cell Viability (%) ([3]; 30 uM): 61.5%
EC50 ([3]; read-out: EC50 (cell viability)): > 30 µM
IC50 [4]: 0.12 µM
